Assay results as given in patent publication US4613666A, “Neplanocin A derivatives” (Toyo Jozo Kabushiki Kaisha, priority 1980, dated 1986).
Converted amounts (≈) assume the structure as drawn.

Tested on: plant pathogenic fungi
Assay: not given
Conditions: earlier applications cited; cited from earlier work

Row | Compound | inhibitory action for plant pathogenic fungi
1 | Nc1ncnc2c1ncn2[C@@H]1C=C(CO)[C@@H](O)[C@H]1O [Neplanocin A] | inhibitory action for plant pathogenic fungi

Tested on: L 5178 Y cells
Assay: growth-inhibitory activity on mouse lymphoma L 5178 Y cells (MIC)
Assay type: cell-based
Conditions: 5×10^4 /ml, Fischer's medium with 10% bovine serum, 37° C., 22 hours, phenol red color change, read-out: MIC (minimum inhibitory concentration on cell growth)
Method: The growth-inhibitory activities of compound [I] of the present invention on L 5178 Y cells are shown below. (1) Test method:
A test sample (0.3 ml) dissolved in a medium [bovine serum (10%) in Fischer's medium] is added to a mouse lymphoma L 5178 Y cells suspension (2.7 ml, 5×10^4 /ml cells), and the mixture is incubated at 37° C. for 22 hours. Cell-growth is observed by checking the color change of phenol red in the medium. The minimum inhibitory concentration (MIC) of the substance on cell growth is defined by observing apparent growth inhibition as compared with that of control.

Row | Compound | MIC
2 | [N-]=[N+]=N[C@H]1[C@H](O)C(CO)=C[C@H]1n1cnc2c(N)ncnc21 [R1=H, R4=N3, R5=H, R6=H, 2'-(R)-azide-2'-deoxyneplanocin A] | 100 µg/mL (≈ 347 µM)
3 | CC(=O)OCC1=C[C@@H](n2cnc3c(N)ncnc32)[C@@H](Cl)[C@@H]1OC(C)=O [R1=H, R4=Cl, R5=Ac, R6=Ac, 2'-(R)-chloro-2'-deoxy-3 '-O,5'-O-diacetyl neplanocin A] | 100 µg/mL (≈ 273 µM)
4 | Nc1ncnc2c1ncn2[C@@H]1C=C(CO)[C@H]2OC(c3ccccc3)O[C@H]21 (some centres unmarked) [2',3'-Obenzylidene neplanocin A, 2',3'-O-benzylidene neplanocin A] | 4 µg/mL (≈ 11.4 µM)
5 | Nc1ncnc2c1ncn2[C@@H]1C=C(CO)[C@@H](O)[C@@H]1Cl [R1=H, R4=Cl, R5=H, R6=H, 2'-(R)-chloro-2'-deoxy neplanocin A] | 20 µg/mL (≈ 71 µM)
6 | Nc1ncnc2c1ncn2[C@@H]1C=C(CO)[C@@H](O)[C@@H]1N [R1=H, R4=NH2, R5=H, R6=H, 2'-(R)-amino-2'-deoxy neplanocin A acetate] | 4 µg/mL
7 | O=C(Nc1ncnc2c1ncn2[C@@H]1C=C(CO)[C@@H](O)[C@@H]1I)c1ccccc1 [R1=COPh, R4=I, R5=H, R6=H, N^6-benzoyl-2'-(R)-iodo-2'-deoxy neplanocin A] | 100 µg/mL (≈ 210 µM)
8 | Nc1ncnc2c1ncn2[C@@H]1C=C(CO)[C@@H](O)[C@@H]1Br [R1=H, R4=Br, R5=H, R6=H, 2'-(R)-bromo-2'-deoxy neplanocin A] | 4 µg/mL (≈ 12.3 µM)

Continued, values first:

Row | MIC | Compound
9 | 0.8 µg/mL (≈ 2.05 µM) | CC(=O)OCC1=C[C@@H](n2cnc3c(N)ncnc32)[C@H](OC(C)=O)[C@@H]1OC(C)=O [2',3',5'-Otriacetyl nephlanocin A, 2',3',5'-O-triacetyl neplanocin A]
10 | 4 µg/mL (≈ 16.2 µM) | Nc1ncnc2c1ncn2[C@@H]1C=C(CO)[C@@H](O)C1 [R1=H, R4=H, R5=H, R6=H, 2'-deoxy neplanocin A]
11 | 4 µg/mL (≈ 10.7 µM) | Nc1ncnc2c1ncn2[C@@H]1C=C(CO)[C@@H](O)[C@@H]1I [R1=H, R4=I, R5=H, R6=H, 2'-(R)-iodo-2'-deoxy neplanocin A]
12 | 0.16 µg/mL (≈ 0.339 µM) | O=C(Nc1ncnc2c1ncn2[C@@H]1C=C(COC(=O)c2ccccc2)[C@@H](O)[C@H]1O)c1ccccc1 [N^6,5'-Odibenzoyl neplanocin A, N^6,5'-O-dibenzoyl neplanocin A]
13 | 0.16 µg/mL (≈ 0.278 µM) | O=C(OCC1=C[C@@H](n2cnc3c(N(C(=O)c4ccccc4)C(=O)c4ccccc4)ncnc32)[C@H](O)[C@@H]1O)c1ccccc1 [N^6,N^6,5'-Otribenzoyl neplanocin A, N^6,N^6 5'-O-tribenzoyl neplanocin A]

Tested on: not given
Assay: not given
Conditions: earlier applications cited; cited from earlier work

Row | Compound | antitumor activity
14 | Nc1ncnc2c1ncn2[C@@H]1C=C(CO)[C@@H](O)[C@H]1O [Neplanocin A] | antitumor activity
